Entries after “also recorded” stand apart in the source; their conditions may differ. Read-outs that look alike come from different tables or passages of the source.
How the values were obtained:
[1] = molecular target: T1, acetylcholine esterase of human erythrocyte origin (Homo sapiens, UniProt P22303); assay: biochemical; format: biochemical
T1 construct: acetylcholine esterase of human erythrocyte origin; purchased Sigma, St. Louis, Mo., USA; host or cells: human erythrocytes
Method: (§2) The AChE inhibitory activity and the BuChE inhibitory activity were determined by a thiocholine method (Ellman method) using acetylcholine esterase of human erythrocyte origin (Sigma, St. Louis, Mo., USA) and butyrylcholine esterase of human serum origin (Biogenesis, Poole, UK). Acetylcholine esterase or butyrylcholine esterase was diluted to a concentration of 0.2 IU/mL with 80 mM tris-HCL buffers (pH=7.4) containing 0.3% bovine serum albumin (BSA) to prepare an enzyme preparation. […] The stock solution was diluted at 3-fold common ratio with 10% DMSO and 80 mM tris-HCl buffers containing 0.3% BSA. On a 96 wells microplate, 20 μL of the drug solution with a given concentration, 30 μL of 80 mM tris-HCl buffers containing 0.3% BSA and 50 μL of the enzyme preparation were distributed, and incubated at room temperature for 1 hour after shaking for 10 seconds. […] For the respective drugs, the test was repeated twice. The % of control of the increase in light absorption was calculated at each concentration with respect to the respective drugs. % of control=increase in light absorption of drug/increase in light absorption of control×100

Hartley male guinea pig = assay: Acetylcholine inductive salivation in guinea pig (Example 5); format: in vivo
Method: (§1) A male SD rat (CLEA Japan Inc.) with a body weight of about 400 g or a Hartley male guinea pig with a body weight of 400 to 500 g (Japan SLC) were used. After urethane anesthesia, sanitary cotton preliminarily weighed was inserted in the mouth of the animal and acetylcholine was intravenously administrated. After 5 minutes, the sanitary cotton was taken out to be weighed and the amount of saliva secreted was measured. The drug was intravenously administrated at 10 min before the administration of acetylcholine. The effect of oxybutynin was analyzed by paired t calibration and the concomitant use effect of the compound A was analyzed by William calibration.

bladder muscle = system: bladder muscle; design: species or system guinea pig
male SD rat = assay: Acetylcholine inductive salivation in rat (Example 5); format: in vivo; conditions: for Amount of saliva secreted: rat
Method: as §1

[2] = system: Hartley male guinea pig, urethane anesthesia; assay: Urine flow dynamic parameters with oxybutynin and compound A (Example 6); format: in vivo; conditions: for Bladder volume, proportion for value before administration (%) / Maximum urine flow rate, proportion for value before administration (%) / Urination efficiency, proportion for value before administration (%): iv + oxybutynin 1 mg/kg, iv
Method: A Hartley male guinea pig with a body weight of about 500 g (Japan SLC Hamamatsu) was used. After urethane anesthesia (1.4 g/kg, i.p.), the medial incision of the lower abdomen was carried out, and the bladder was exposed. Two injection needles (20G) with which a polyethylene tube (PE-100, Becton Dickinson, Franklin Lakes, N.J., USA) was linked were inserted in the bladder, and one needle was used for injection of saline and another needle was used for measurement of the inner pressure of the bladder. Further, a cannula (PE-10, Becton Dickinson) for injection of phenylephrine was inserted in right common jugular vein. […] The amount of urine eliminated was measured by an electronic weighing machine (GX-400, A&D, Tokyo) and the inner pressure of the bladder was measured using a pressure transducer (AP641G, NIPPON KODEN Corporation, Tokyo). The analogue data of the weight of urine and the inner pressure of the bladder were inputted in a multi-channel data analyzer (MP-100A-CE, Biopac systems), and analyzed by a proprietary software (Acqknowledge 3.7.1, Biopac systems). The sampling interval of data was 0.1 sec and a low pass filter was applied to the data of discharge amount and urine flow rate at 0.5 Hz in order to remove noise. A delay time of 0.1 sec in weighing the urine was rectified, and the urine flow rate was determined by differentiating the value of discharge amount. The dynamic state parameter of the flow of urine below was measured. A bladder volume, the maximum urine flow rate, urination efficiency (=amount of urination/bladder volume). The effect of oxybutynin was analyzed by the paired t calibration and the concomitant use effect of the compound A was analyzed by Dunnett calibration.

[3] = system: Hartley male guinea pig, urethane anesthesia; assay: Pressure/flow study using guinea pig (Example 3); format: in vivo; conditions: for Amount of urination, proportion for value before administration (%) / At maximum urine flow rate Inner pressure of bladder, proportion for value before administration (%) / Maximum urine flow rate, proportion for value before administration (%): i.v.; for Bladder compliance, proportion for value before administration (%) / Bladder volume, proportion for value before administration (%): iv
Method: A Hartley male guinea pig of 5 weeks old (Japan SLC) was used. After urethane anesthesia, the medial incision of the lower abdomen was carried out, and the bladder was exposed. Two injection needles (20G) with which a polyethylene tube (PE-100) was linked were inserted in the bladder, and one needle was used for injection of saline and another needle was used for measurement of the inner pressure of the bladder. The injection of saline was continuously carried out at a rate of 18 mL/h using a syringe pump (SP-100S, JMS, and Hiroshima), the injection was stopped after intermittent urination was confirmed 3 times at minimum, and the saline in the bladder was removed by suction. Injection was started again, and the injection was stopped when the raise of the inner pressure of the bladder just before urination was confirmed. The amount of urine excreted was measured by an electronic weighing machine (HX-400, A&D, and Tokyo) and the inner pressure of the bladder was measured using a pressure transducer (AP641G, NIPPON KODEN Corporation). The analogue data of the weight of urine and the inner pressure of the bladder were inputted in a multi-channel data analyzer (MP-100A-CE, Biopac systems), and analyzed by a proprietary software (Acqknowledge, Biopac systems). The sampling interval of data was 0.1 second and a low pass filter was applied to the data of discharge amount and urine flow rate at 0.5 Hz in order to remove noise. A delay time of 0.1 second in weighing the urine was rectified, and the urine flow rate was determined by differentiating the value of discharge amount. After a value before twice administration of the drug was measured, the drugs (the compound A, distigmine, neostigigmine and bethanechol) were intravenously administrated. Saline in the bladder was extracted after 10 minutes of administration of the compound A, bethanechol and neostigigmine and after 30 minutes of administration of distigmine, and injection was started again to measure data. The drugs were dissolved with distilled water so that administration volume was 0.5 mL/kg. Parameters (bladder volume, the amount of urination, the maximum urine flow rate, the inner pressure of the bladder at the maximum urine flow, bladder compliance) below were measured. The bladder compliance was calculated from intersection point (the threshold of bladder volume, threshold pressure) which was obtained by determining regression line in the respective curves of the inner pressure of the bladder at collection of urine and urinary reflex. The change rate before and after administration of the drug was calculated for the respective parameters and the calibration of significant difference was carried out by a solvent administration group and Dunnett calibration (Table 6 and Table 7).

[4] = molecular target: T2, butyrylcholine esterase of human serum origin (Homo sapiens, UniProt P06276); assay: biochemical; format: biochemical
T2 construct: butyrylcholine esterase of human serum origin; purchased Biogenesis, Poole, UK; host or cells: human serum
Method: as §2

Butyrylcholine esterase = Butyrylcholine esterase (Rattus norvegicus, UniProt Q9JKC1); conditions: cited from earlier work
Butyrylcholine esterase, sequence (Q9JKC1 24-597): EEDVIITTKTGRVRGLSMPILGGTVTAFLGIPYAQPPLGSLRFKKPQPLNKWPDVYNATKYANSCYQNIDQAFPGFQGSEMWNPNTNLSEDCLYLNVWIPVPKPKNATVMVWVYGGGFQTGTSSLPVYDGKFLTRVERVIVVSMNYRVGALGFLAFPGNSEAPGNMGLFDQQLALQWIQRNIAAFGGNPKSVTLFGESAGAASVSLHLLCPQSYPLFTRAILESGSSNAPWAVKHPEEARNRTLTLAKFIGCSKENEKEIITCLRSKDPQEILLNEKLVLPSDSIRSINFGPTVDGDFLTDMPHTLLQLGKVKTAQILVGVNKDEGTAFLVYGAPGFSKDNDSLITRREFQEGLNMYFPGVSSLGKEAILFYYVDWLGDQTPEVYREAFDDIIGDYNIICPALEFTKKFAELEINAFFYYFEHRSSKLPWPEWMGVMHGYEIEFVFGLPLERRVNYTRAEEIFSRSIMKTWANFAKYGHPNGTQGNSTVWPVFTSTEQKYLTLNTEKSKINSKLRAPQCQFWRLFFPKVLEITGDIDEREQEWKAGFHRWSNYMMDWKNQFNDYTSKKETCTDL

T1 sequence (P22303 32-617 isoform P22303-2 limits assumed): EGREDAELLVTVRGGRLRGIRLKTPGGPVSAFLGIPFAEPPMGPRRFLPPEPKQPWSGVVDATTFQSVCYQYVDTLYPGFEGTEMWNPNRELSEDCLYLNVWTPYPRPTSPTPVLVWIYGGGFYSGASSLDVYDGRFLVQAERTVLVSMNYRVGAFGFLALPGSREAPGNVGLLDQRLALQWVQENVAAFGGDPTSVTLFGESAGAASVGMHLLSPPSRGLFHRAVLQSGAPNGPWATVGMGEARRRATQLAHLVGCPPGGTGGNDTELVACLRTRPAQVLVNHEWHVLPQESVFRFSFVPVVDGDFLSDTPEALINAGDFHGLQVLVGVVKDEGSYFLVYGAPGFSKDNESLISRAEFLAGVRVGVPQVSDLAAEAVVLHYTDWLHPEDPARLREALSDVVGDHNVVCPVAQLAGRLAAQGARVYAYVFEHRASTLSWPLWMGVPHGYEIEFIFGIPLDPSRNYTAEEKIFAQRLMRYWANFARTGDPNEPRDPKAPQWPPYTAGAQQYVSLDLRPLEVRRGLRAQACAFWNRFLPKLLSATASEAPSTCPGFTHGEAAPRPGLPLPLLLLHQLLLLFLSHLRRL
T2 sequence (P06276 29-602): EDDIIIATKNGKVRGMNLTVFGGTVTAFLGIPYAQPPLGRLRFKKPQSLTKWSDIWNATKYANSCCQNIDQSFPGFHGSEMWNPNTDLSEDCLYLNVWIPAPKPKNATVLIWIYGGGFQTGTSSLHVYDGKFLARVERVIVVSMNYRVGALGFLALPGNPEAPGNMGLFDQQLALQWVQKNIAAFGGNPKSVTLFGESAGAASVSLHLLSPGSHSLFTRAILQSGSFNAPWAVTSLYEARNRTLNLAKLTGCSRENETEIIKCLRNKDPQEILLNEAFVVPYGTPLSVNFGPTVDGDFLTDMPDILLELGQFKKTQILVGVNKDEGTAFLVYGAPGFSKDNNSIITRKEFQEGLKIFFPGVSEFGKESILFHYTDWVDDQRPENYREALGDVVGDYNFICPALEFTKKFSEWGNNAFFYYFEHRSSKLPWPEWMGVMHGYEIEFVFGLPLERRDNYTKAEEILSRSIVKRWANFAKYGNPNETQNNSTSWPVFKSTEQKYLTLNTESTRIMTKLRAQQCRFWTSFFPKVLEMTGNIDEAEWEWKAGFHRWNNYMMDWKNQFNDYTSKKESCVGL

## O=C(CCC1CCN(Cc2cccc(F)c2)CC1)c1cc2c3c(c1)CCN3C(=O)CC2 [Compound A, 8-[3-[1-[(3-fluorophenyl)methyl]-4-piperidinyl]-1-oxopropyl]-1,2,5,6-tetrahydro-4H-pyrrolo[3,2,1-ij]quinolin-4-one]
[1]
  Acetylcholine esterase selective inhibitory activity: ≥ 6700 fold
  inhibition of the activity of human acetylcholine esterase: inhibited the activity of human acetylcholine esterase
[1]; BuChE IC50/AChE IC50 (Table 2)
  Selectivity b/a: >6700
[1]; mean value of twice tests, read-out: Acetylcholine esterase IC50
  IC50: 1.5 nM
Hartley male guinea pig; Compound A 0.003 mg/kg + oxybutynin 1 mg/kg + acetylcholine 1 mg/kg
  Amount of saliva secreted: 0.17 ± 0.03 g
Hartley male guinea pig; Compound A 0.010 mg/kg + oxybutynin 1 mg/kg + acetylcholine 1 mg/kg
  Amount of saliva secreted: 0.27 ± 0.02 g
Bladder muscle; 0.003 μM, 30 minutes, change of basic tension, 100 mM KCl contraction = 100%
  Tension (%): −0.55 ± 0.60%
Bladder muscle; 0.01 μM, 30 minutes, change of basic tension, 100 mM KCl contraction = 100%
  Tension (%): −0.26 ± 0.38%
Bladder muscle; 0.03 μM, 30 minutes, change of basic tension, 100 mM KCl contraction = 100%
  Tension (%): 0.13 ± 0.80%
Bladder muscle; 0.1 μM, 30 minutes, change of basic tension, 100 mM KCl contraction = 100%
  Tension (%): −0.74 ± 0.60%
Bladder muscle; Table 5: Compound A 0.1 μM with iso-OMPA 10 μM
  Tension (%): 1.96 ± 0.87 %
Bladder muscle; Table 5: Compound A 0.1 μM with iso-OMPA 100 μM
  Tension (%): 5.43 ± 1.17 %
Bladder muscle; Table 5: Compound A 0.1 μM, iso-OMPA 0 μM
  Tension (%): −0.47 ± 0.17%
Bladder muscle; compound A used in combination with iso-OMPA
  effect on basic tension: significant increase in the basic tension was confirmed
Bladder muscle; drug alone
  effect on basic tension: did not influence the basic tension
Male SD rat; rat and guinea pig (Tables 9 and 10)
  action on acetylcholine-induced secretion of saliva: significantly antagonized
Male SD rat; Compound A 0.001 mg/kg + oxybutynin 0.1 mg/kg + acetylcholine 1 mg/kg
  Amount of saliva secreted: 0.22 ± 0.02 g
Male SD rat; Compound A 0.003 mg/kg + oxybutynin 0.1 mg/kg + acetylcholine 1 mg/kg
  Amount of saliva secreted: 0.26 ± 0.02 g
Male SD rat; Compound A 0.01 mg/kg + oxybutynin 0.1 mg/kg + acetylcholine 1 mg/kg
  Amount of saliva secreted: 0.49 ± 0.03 g
[2]; Compound A 0.003 mg/kg
  Bladder volume, proportion for value before administration (%): 21.07 ± 4.65%
  Maximum urine flow rate, proportion for value before administration (%): −34.88 ± 8.22%
  Urination efficiency, proportion for value before administration (%): −61.67 ± 7.22%
[2]; Compound A 0.01 mg/kg
  Bladder volume, proportion for value before administration (%): 24.73 ± 7.05%
  Maximum urine flow rate, proportion for value before administration (%): −9.04 ± 5.94 %
  Urination efficiency, proportion for value before administration (%): −30.23 ± 10.48 %
[2]; oxybutynin 1 mg/kg, compound A 0.003, 0.01 mg/kg with oxybutynin
  action on bladder volume, maximum urine flow rate and urination efficiency: acted antagonistically against the lowering of the maximum urine flow rate and urination efficiency but did not influence the increase of bladder volume
[3]; 0.003 mg/kg
  Amount of urination, proportion for value before administration (%): 150.2 ± 10.0 %
  At maximum urine flow rate Inner pressure of bladder, proportion for value before administration (%): 117.5 ± 6.2%
  Maximum urine flow rate, proportion for value before administration (%): 112.1 ± 9.7 %
  Bladder compliance, proportion for value before administration (%): 75.2 ± 4.8%
  Bladder volume, proportion for value before administration (%): 94.6 ± 5.8%
[3]; 0.01 mg/kg
  Amount of urination, proportion for value before administration (%): 165.2 ± 18.2 %
  At maximum urine flow rate Inner pressure of bladder, proportion for value before administration (%): 110.9 ± 6.0%
  Maximum urine flow rate, proportion for value before administration (%): 124.4 ± 10.3 %
  Bladder compliance, proportion for value before administration (%): 82.6 ± 2.6%
  Bladder volume, proportion for value before administration (%): 101.7 ± 5.0%
[3]; 0.03 mg/kg
  Amount of urination, proportion for value before administration (%): 164.0 ± 13.4 %
  At maximum urine flow rate Inner pressure of bladder, proportion for value before administration (%): 116.9 ± 8.4%
  Maximum urine flow rate, proportion for value before administration (%): 133.5 ± 15.3 %
  Bladder compliance, proportion for value before administration (%): 95.9 ± 18.0%
  Bladder volume, proportion for value before administration (%): 117.2 ± 9.0 %
[3]; intravenous administration
  change of the parameters at urination and at collection of urine (text): increased significantly the amount of urination and the maximum urine flow rate at 0.003 mg/kg or more; also recorded: the increase of the bladder volume was confirmed at 0.03 mg/kg, and did not influence the bladder compliance
[4]
  inhibitory activity for human butyrylcholine esterase: did not show inhibitory activity for human butyrylcholine esterase up to 10^−5 M
[4]; mean value of twice tests, read-out: Butyrylcholine esterase IC50
  IC50: > 10000 nM

## CNC(=O)Oc1ccc2c(c1)[C@]1(C)CCN(C)[C@@H]1N2C [Physostigmine]
Butyrylcholine esterase; Literature 4, read-out: Butyrylcholine esterase inhibitory activity (IC50)
  IC50: 16 nM
Butyrylcholine esterase; Literature 6, read-out: Butyrylcholine esterase inhibitory activity (IC50)
  IC50: 15 nM

— patent US20070021391A1, “Preventive/remedy for urinary disturbance” (priority 2003, published 2007)
